Columns and labels:
[1] = target: T1, human Cereblon WT GST-tagged protein (Homo sapiens, UniProt Q96SW2); assay: CRBN-binding affinity by HTRF (CEREBLON BINDING kit); conditions: HTRF inhibitory activity, CEREBLON BINDING kit; read-out: HTRF IC50
T1 construct: purchased CISBIO 64BDCRBNPEH

IKZF2 = target: T2, IKZF2 (Homo sapiens, UniProt Q96SW2+Q9UKS7); assay: Western-blot assay of substrate protein degradation in hPBMCs, IKZF2; type: cell-based; conditions: 24 hours of compound treatment, compounds tested at 50 nM and 500 nM (concentration of the table not stated)
T2 construct: endogenous in cells; host or cells: hPBMCs (Milecell Biotechnologies)

WEE1 = target: T3, WEE1 (Homo sapiens, UniProt P30291+Q96SW2); assay: Western-blot assay of substrate protein degradation in hPBMCs, WEE1; type: cell-based; conditions: 24 hours of compound treatment, compounds tested at 50 nM and 500 nM (concentration of the table not stated)
T3 construct: endogenous in cells; host or cells: hPBMCs (Milecell Biotechnologies)

IKZF1 = target: T4, IKZF1 (Homo sapiens, UniProt Q13422+Q96SW2); assay: Western-blot assay of substrate protein degradation in hPBMCs, IKZF1; type: cell-based; conditions: 24 hours of compound treatment, compounds tested at 50 nM and 500 nM (concentration of the table not stated)
T4 construct: endogenous in cells; host or cells: hPBMCs (Milecell Biotechnologies)

GSPT1 = target: T5, GSPT1 (Homo sapiens, UniProt P15170+Q96SW2); assay: Western-blot assay of substrate protein degradation in hPBMCs, GSPT1; type: cell-based; conditions: 24 hours of compound treatment, compounds tested at 50 nM and 500 nM (concentration of the table not stated)
T5 construct: endogenous in cells; host or cells: hPBMCs (Milecell Biotechnologies)

IKZF3 = target: T6, IKZF3 (Homo sapiens, UniProt Q96SW2+Q9UKT9); assay: Western-blot assay of substrate protein degradation in hPBMCs, IKZF3; type: cell-based; conditions: 24 hours of compound treatment, compounds tested at 50 nM and 500 nM (concentration of the table not stated)
T6 construct: endogenous in cells; host or cells: hPBMCs (Milecell Biotechnologies)

CK1α = target: T7, CK1α (Homo sapiens, UniProt P48729+Q96SW2); assay: Western-blot assay of substrate protein degradation in hPBMCs, CK1α; type: cell-based; conditions: 24 hours of compound treatment, compounds tested at 50 nM and 500 nM (concentration of the table not stated)
T7 construct: endogenous in cells; host or cells: hPBMCs (Milecell Biotechnologies)
T7 sequence (P48729 whole entry): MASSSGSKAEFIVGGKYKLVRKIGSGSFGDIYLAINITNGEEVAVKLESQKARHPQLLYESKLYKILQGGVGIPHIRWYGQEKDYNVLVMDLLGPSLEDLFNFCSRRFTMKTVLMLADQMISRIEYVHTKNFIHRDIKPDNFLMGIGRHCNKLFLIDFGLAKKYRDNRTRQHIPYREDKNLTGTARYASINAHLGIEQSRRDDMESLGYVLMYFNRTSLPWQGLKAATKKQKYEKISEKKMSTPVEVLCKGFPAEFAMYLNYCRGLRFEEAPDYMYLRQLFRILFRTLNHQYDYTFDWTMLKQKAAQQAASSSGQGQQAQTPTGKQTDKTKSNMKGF
T7 sequence (Q96SW2 whole entry): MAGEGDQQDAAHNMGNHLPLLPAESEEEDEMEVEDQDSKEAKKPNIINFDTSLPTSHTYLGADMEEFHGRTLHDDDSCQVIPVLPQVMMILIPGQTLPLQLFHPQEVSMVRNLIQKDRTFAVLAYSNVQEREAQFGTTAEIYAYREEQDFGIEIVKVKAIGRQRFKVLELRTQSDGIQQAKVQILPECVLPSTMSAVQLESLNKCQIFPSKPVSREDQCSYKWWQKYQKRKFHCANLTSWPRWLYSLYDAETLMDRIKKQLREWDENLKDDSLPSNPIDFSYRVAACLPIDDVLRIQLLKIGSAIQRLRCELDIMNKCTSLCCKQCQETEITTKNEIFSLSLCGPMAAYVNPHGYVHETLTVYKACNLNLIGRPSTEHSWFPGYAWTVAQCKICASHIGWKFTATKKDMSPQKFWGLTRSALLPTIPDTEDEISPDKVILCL
T7 sequence (Q16531 whole entry partner): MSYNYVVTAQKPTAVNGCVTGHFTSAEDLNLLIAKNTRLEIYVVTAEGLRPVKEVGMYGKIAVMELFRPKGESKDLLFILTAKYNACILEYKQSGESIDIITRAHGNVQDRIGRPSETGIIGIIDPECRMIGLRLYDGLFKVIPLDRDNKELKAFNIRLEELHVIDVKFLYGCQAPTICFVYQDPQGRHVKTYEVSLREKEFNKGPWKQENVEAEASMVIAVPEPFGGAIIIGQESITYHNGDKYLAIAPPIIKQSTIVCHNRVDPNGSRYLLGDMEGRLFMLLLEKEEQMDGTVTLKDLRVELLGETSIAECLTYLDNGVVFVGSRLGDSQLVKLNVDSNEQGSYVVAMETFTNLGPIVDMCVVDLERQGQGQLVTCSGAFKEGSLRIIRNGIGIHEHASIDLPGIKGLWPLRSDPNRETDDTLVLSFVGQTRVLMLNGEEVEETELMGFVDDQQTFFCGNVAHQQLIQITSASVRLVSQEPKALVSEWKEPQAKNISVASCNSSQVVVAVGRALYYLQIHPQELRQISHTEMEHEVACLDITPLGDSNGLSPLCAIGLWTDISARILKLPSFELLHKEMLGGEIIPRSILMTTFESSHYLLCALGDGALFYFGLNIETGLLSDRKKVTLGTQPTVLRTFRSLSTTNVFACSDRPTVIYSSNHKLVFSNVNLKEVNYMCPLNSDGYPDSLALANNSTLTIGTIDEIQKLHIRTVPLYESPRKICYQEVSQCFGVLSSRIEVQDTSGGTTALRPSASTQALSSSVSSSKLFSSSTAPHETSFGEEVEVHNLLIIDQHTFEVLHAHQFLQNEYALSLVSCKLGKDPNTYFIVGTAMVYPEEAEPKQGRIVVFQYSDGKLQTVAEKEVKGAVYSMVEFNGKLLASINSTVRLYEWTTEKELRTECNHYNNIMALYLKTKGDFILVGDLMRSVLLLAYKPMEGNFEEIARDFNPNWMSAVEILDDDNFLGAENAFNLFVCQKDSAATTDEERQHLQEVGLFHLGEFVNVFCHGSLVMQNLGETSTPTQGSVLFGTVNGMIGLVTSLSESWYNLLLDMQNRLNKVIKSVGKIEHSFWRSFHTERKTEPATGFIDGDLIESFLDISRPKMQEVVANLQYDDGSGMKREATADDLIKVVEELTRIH

T6 sequence (Q9UKT9 whole entry): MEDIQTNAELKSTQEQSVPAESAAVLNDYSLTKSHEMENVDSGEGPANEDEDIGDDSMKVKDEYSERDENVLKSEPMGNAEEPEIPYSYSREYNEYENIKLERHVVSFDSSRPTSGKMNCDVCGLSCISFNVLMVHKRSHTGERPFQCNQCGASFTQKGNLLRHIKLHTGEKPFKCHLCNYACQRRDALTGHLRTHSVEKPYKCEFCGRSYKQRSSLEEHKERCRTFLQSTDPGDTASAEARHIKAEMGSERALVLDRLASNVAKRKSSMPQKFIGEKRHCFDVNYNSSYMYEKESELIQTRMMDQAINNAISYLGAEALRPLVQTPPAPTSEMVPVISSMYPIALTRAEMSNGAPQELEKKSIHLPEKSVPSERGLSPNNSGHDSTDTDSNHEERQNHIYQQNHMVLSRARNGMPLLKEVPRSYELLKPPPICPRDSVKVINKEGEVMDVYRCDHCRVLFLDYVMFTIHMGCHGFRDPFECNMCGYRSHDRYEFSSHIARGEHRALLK
T6 sequence (Q96SW2 whole entry): as the sequence (Q96SW2 whole entry) above
T6 sequence (Q16531 whole entry partner): as the sequence (Q16531 whole entry partner) above
T2 sequence (Q9UKS7 whole entry): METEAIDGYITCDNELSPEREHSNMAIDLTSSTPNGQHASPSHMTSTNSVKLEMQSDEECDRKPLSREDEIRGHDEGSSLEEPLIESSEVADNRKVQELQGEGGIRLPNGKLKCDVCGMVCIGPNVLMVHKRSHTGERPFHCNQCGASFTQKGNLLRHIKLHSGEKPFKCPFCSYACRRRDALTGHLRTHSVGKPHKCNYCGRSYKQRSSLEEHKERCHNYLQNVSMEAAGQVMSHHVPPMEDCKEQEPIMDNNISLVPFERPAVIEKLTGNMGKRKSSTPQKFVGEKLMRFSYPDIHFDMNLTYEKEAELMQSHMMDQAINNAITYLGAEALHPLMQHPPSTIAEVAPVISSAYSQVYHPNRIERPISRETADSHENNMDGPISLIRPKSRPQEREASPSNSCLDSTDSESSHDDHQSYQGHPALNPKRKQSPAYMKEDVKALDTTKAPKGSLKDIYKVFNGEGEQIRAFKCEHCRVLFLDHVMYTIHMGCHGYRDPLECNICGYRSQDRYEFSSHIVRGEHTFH
T2 sequence (Q96SW2 whole entry): as the sequence (Q96SW2 whole entry) above
T2 sequence (Q16531 whole entry partner): as the sequence (Q16531 whole entry partner) above
T3 sequence (P30291 whole entry): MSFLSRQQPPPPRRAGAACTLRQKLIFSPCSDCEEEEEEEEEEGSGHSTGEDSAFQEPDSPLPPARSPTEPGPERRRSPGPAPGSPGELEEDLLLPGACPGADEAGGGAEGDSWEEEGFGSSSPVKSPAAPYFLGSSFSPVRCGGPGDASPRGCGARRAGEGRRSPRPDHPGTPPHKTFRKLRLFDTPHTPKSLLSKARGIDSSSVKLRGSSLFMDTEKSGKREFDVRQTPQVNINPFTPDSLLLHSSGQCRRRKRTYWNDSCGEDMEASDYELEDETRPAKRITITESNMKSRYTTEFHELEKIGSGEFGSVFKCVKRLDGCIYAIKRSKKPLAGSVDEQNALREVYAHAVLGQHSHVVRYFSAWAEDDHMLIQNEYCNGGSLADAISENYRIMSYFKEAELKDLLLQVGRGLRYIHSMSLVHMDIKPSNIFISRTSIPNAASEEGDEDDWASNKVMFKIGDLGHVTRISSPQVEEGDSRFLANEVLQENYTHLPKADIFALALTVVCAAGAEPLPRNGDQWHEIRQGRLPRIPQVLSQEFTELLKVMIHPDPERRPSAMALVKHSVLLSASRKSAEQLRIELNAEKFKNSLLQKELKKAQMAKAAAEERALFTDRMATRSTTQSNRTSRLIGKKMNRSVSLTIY
T3 sequence (Q96SW2 whole entry): as the sequence (Q96SW2 whole entry) above
T3 sequence (Q16531 whole entry partner): as the sequence (Q16531 whole entry partner) above
T4 sequence (Q13422 whole entry): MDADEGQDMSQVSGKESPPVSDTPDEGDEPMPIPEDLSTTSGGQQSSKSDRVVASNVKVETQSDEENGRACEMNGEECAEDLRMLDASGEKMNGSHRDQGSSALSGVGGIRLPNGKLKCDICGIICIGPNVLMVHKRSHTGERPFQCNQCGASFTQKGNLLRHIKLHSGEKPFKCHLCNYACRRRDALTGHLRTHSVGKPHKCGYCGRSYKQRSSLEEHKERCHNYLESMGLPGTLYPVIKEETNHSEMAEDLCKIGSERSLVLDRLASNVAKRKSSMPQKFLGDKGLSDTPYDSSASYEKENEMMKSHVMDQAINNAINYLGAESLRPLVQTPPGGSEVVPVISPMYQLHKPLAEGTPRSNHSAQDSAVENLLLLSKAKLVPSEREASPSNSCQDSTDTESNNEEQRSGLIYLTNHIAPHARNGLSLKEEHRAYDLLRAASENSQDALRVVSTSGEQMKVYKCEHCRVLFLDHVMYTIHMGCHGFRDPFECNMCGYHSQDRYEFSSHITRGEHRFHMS
T4 sequence (Q96SW2 whole entry): as the sequence (Q96SW2 whole entry) above
T4 sequence (Q16531 whole entry partner): as the sequence (Q16531 whole entry partner) above
T1 sequence (Q96SW2 whole entry): as the sequence (Q96SW2 whole entry) above

IC50 [1] | Structure (SMILES) | IKZF2 substrate protein remaining % (IKZF2) | Weel substrate protein remaining % (WEE1) | IKZF 1 substrate protein remaining % (IKZF1) | GSPT1 substrate protein remaining % (GSPT1) | IKZF3 substrate protein remaining % (IKZF3) | CK1a substrate protein remaining % (CK1α)
1000 to 1500 nM | O=C1CCC(N2Cc3cc(CN4CCC(c5ccoc5)CC4)ccc3C2=O)C(=O)N1 (stereo not shown) [GT-04590, 3-(5-((4-(furan-3-yl)piperidin-1-yl)methyl)-1-oxoisoindolin-2-yl)piperidine-2,6-dione] | A (0% ≤ substrate protein remaining % ≤ 80%) | B (80%< substrate protein remaining %≤ 100%) | B (80%< substrate protein remaining %≤ 100%) | A (0% ≤ substrate protein remaining % ≤ 80%) | B (80%< substrate protein remaining %≤ 100%) | B (80%< substrate protein remaining %≤ 100%)
1500 to 1900 nM | O=C1CCC(N2Cc3cc(CN4CCCC(C5CCNCC5)C4)ccc3C2=O)C(=O)N1 (stereo not shown) [GT-04591, 3-(5-([3,4'-bipiperidin]-1-ylmethyl)-1-oxoisoindolin-2-yl)piperidine-2,6-dione] | B (80%< substrate protein remaining %≤ 100%) | B (80%< substrate protein remaining %≤ 100%) | B (80%< substrate protein remaining %≤ 100%) | A (0% ≤ substrate protein remaining % ≤ 80%) | B (80%< substrate protein remaining %≤ 100%) | A (0% ≤ substrate protein remaining % ≤ 80%)
500 to 1000 nM | O=C1CCC(N2Cc3cc(CN4CCN(c5c(Cl)cncc5Br)CC4)ccc3C2=O)C(=O)N1 (stereo not shown) [GT-04600, 3-(5-((4-(3-bromo-5-chloropyridin-4-yl)piperazin-1-yl)methyl)-1-oxoisoindolin-2-yl)piperidine-2,6-dione] | A (0% ≤ substrate protein remaining % ≤ 80%) | A (0% ≤ substrate protein remaining % ≤ 80%) | A (0% ≤ substrate protein remaining % ≤ 80%) | A (0% ≤ substrate protein remaining % ≤ 80%) | A (0% ≤ substrate protein remaining % ≤ 80%) | B (80%< substrate protein remaining %≤ 100%)
500 to 1000 nM | O=C1CCC(N2Cc3cc(CN4CCN(c5c(F)cncc5Cl)CC4)ccc3C2=O)C(=O)N1 (stereo not shown) [GT-04611, 3-(5-((4-(3-chloro-5-fluoropyridin-4-yl)piperazin-1-yl)methyl)-1-oxoisoindolin-2-yl)piperidine-2,6-dione] | B (80%< substrate protein remaining %≤ 100%) | A (0% ≤ substrate protein remaining % ≤ 80%) | B (80%< substrate protein remaining %≤ 100%) | A (0% ≤ substrate protein remaining % ≤ 80%) | B (80%< substrate protein remaining %≤ 100%) | B (80%< substrate protein remaining %≤ 100%)
500 to 1000 nM | O=C1CCC(N2Cc3cc(CN4CCN(c5ccnc(Cl)c5F)CC4)ccc3C2=O)C(=O)N1 (stereo not shown) [GT-04612, 3-(5-((4-(2-chloro-3-fluoropyridin-4-yl)piperazin-1-yl)methyl)-1-oxoisoindolin-2-yl)piperidine-2,6-dione] | B (80%< substrate protein remaining %≤ 100%) | A (0% ≤ substrate protein remaining % ≤ 80%) | B (80%< substrate protein remaining %≤ 100%) | A (0% ≤ substrate protein remaining % ≤ 80%) | B (80%< substrate protein remaining %≤ 100%) | B (80%< substrate protein remaining %≤ 100%)
1000 to 1500 nM | O=C1CCC(N2Cc3cc(CN4CCN(c5c(Cl)cccc5Cl)CC4)ccc3C2=O)C(=O)N1 (stereo not shown) [GT-04613, 3-(5-((4-(2,6-dichlorophenyl)piperazin-1-yl)methyl)-1-oxoisoindolin-2-yl)piperidine-2,6-dione] | B (80%< substrate protein remaining %≤ 100%) | A (0% ≤ substrate protein remaining % ≤ 80%) | B (80%< substrate protein remaining %≤ 100%) | A (0% ≤ substrate protein remaining % ≤ 80%) | B (80%< substrate protein remaining %≤ 100%) | B (80%< substrate protein remaining %≤ 100%)
< 500 nM | O=C1CCC(N2Cc3cc(CN4CCN(c5ccnc(Cl)c5Br)CC4)ccc3C2=O)C(=O)N1 (stereo not shown) [GT-04616, 3-(5-((4-(3-bromo-2-chloropyridin-4-yl)piperazin-1-yl)methyl)-1-oxoisoindolin-2-yl)piperidine-2,6-dione] | B (80%< substrate protein remaining %≤ 100%) | B (80%< substrate protein remaining %≤ 100%) | B (80%< substrate protein remaining %≤ 100%) | A (0% ≤ substrate protein remaining % ≤ 80%) | B (80%< substrate protein remaining %≤ 100%) | B (80%< substrate protein remaining %≤ 100%)

The next lines start with the molecule.

Structure (SMILES) | IC50 [1] | IKZF2 substrate protein remaining % (IKZF2) | Weel substrate protein remaining % (WEE1) | IKZF 1 substrate protein remaining % (IKZF1) | GSPT1 substrate protein remaining % (GSPT1) | IKZF3 substrate protein remaining % (IKZF3) | CK1a substrate protein remaining % (CK1α)
O=C1CCC(N2Cc3cc(CN4CCC(c5ccnc(F)c5F)CC4)ccc3C2=O)C(=O)N1 (stereo not shown) [GT-04556, 3-(5-((4-(2,3-difluoropyridin-4-yl)piperidin-1-yl)methyl)-1-oxoisoindolin-2-yl)piperidine-2,6-dione] | 500 to 1000 nM | A (0% ≤ substrate protein remaining % ≤ 80%) | A (0% ≤ substrate protein remaining % ≤ 80%) | A (0% ≤ substrate protein remaining % ≤ 80%) | A (0% ≤ substrate protein remaining % ≤ 80%) | A (0% ≤ substrate protein remaining % ≤ 80%) | A (0% ≤ substrate protein remaining % ≤ 80%)
O=C1CCC(N2Cc3cc(CN4CCN(c5nccc(I)c5F)CC4)ccc3C2=O)C(=O)N1 (stereo not shown) [GT-04557, 3-(5-((4-(3-fluoro-4-iodopyridin-2-yl)piperazin-1-yl)methyl)-1-oxoisoindolin-2-yl)piperidine-2,6-dione] | 500 to 1000 nM | A (0% ≤ substrate protein remaining % ≤ 80%) | A (0% ≤ substrate protein remaining % ≤ 80%) | A (0% ≤ substrate protein remaining % ≤ 80%) | A (0% ≤ substrate protein remaining % ≤ 80%) | A (0% ≤ substrate protein remaining % ≤ 80%) | A (0% ≤ substrate protein remaining % ≤ 80%)
O=C1CCC(N2Cc3cc(CN4CCN(c5ncccc5F)CC4)ccc3C2=O)C(=O)N1 (stereo not shown) [GT-04578, 3-(5-((4-(3-fluoropyridin-2-yl)piperazin-1-yl)methyl)-1-oxoisoindolin-2-yl)piperidine-2,6-dione] | 1000 to 1500 nM | A (0% ≤ substrate protein remaining % ≤ 80%) | B (80%< substrate protein remaining %≤ 100%) | B (80%< substrate protein remaining %≤ 100%) | A (0% ≤ substrate protein remaining % ≤ 80%) | B (80%< substrate protein remaining %≤ 100%) | A (0% ≤ substrate protein remaining % ≤ 80%)
O=C1CCC(N2Cc3cc(CN4CCN(c5nccc(F)c5F)CC4)ccc3C2=O)C(=O)N1 (stereo not shown) [GT-04579, 3-(5-((4-(3,4-difluoropyridin-2-yl)piperazin-1-yl)methyl)-1-oxoisoindolin-2-yl)piperidine-2,6-dione] | 1500 to 1900 nM | B (80%< substrate protein remaining %≤ 100%) | B (80%< substrate protein remaining %≤ 100%) | B (80%< substrate protein remaining %≤ 100%) | B (80%< substrate protein remaining %≤ 100%) | B (80%< substrate protein remaining %≤ 100%) | A (0% ≤ substrate protein remaining % ≤ 80%)
O=C1CCC(N2Cc3cc(CN4CCN(c5ccncc5Br)CC4)ccc3C2=O)C(=O)N1 (stereo not shown) [GT-04580, 3-(5-((4-(3-bromopyridin-4-yl)piperazin-1-yl)methyl)-1-oxoisoindolin-2-yl)piperidine-2,6-dione] | 500 to 1000 nM | A (0% ≤ substrate protein remaining % ≤ 80%) | A (0% ≤ substrate protein remaining % ≤ 80%) | A (0% ≤ substrate protein remaining % ≤ 80%) | B (80%< substrate protein remaining %≤ 100%) | A (0% ≤ substrate protein remaining % ≤ 80%) | A (0% ≤ substrate protein remaining % ≤ 80%)
O=C1CCC(N2Cc3cc(CN4CCN(c5ccncc5F)CC4)ccc3C2=O)C(=O)N1 (stereo not shown) [GT-04581, 3-(5-((4-(3-fluoropyridin-4-yl)piperazin-1-yl)methyl)-1-oxoisoindolin-2-yl)piperidine-2,6-dione] | 1000 to 1500 nM | A (0% ≤ substrate protein remaining % ≤ 80%) | B (80%< substrate protein remaining %≤ 100%) | B (80%< substrate protein remaining %≤ 100%) | B (80%< substrate protein remaining %≤ 100%) | A (0% ≤ substrate protein remaining % ≤ 80%) | B (80%< substrate protein remaining %≤ 100%)

— patent EP4745137A1 (Gluetacs Therapeutics (Shanghai) Co., Ltd., priority 2023, dated 2025)
